# Test system: not listed separately
# Test: Determination of the maximum tolerated dose (MTD)
# Details: B6D2F1/Jico, mouse, in vivo, ip; single intraperitoneal administration, doses 2.5 to 160 mg/kg, survival over 14 days
# Experimental: The evaluation of the maximum tolerated dose was performed on 4- to 6-week-old B6D2F1/Jico mice. The compounds were administered intraperitoneally at increasing doses ranging from 2.5 to 160 mg/kg. The value of the MTD (expressed in mg/kg) is determined from the observation of the survival rate of the animals over a 14-day period after a single administration of the product under consideration. The change in weight of the animals is also monitored during this period. When the MTD value is greater than 160 mg/kg, the MTD value is considered as being 160 mg/kg by default.
row,SMILES,MTD at 14 day
1,"COc1ccc(-c2cn(C)c3cc(OC)cc(N4CCOCC4)c3c2=O)cc1 [CRL8435, 7-Methoxy-3-(4-methoxyphenyl)-1-methyl-5-morpholino-1,4-dihydro-4-quinolinone]",> 160 mg/kg
2,"COc1ccc(-c2cn(CCC#N)c3cc(OC)ccc3c2=O)cc1 [CRL8467, 3-[7-Methoxy-3-(4-methoxyphenyl)-4-oxo-1,4-dihydro-1-quinolinyl]propanenitrile]",> 160 mg/kg

# Test system: T24
# Test: MTT test, cytotoxic activity on non-clonogenic cell lines
# Assay type: cell-based
# Details: Homo sapiens, T-24; 10^−5 M, 72 hours of incubation, control condition = 100%, mean value; read-out: mean optical density as percentage of control, T24
# Experimental: (§1) The principle of the MTT test is based on the mitochondrial reduction, by the metabolically active live cells, of the yellow-colored product MTT (3-(4,5-dimethylthiazol-2-yl)-2,5-diphenyltetrazolium bromide) to a blue-colored product, formazan. The amount of formazan thus obtained is directly proportional to the amount of live cells present in the culture well(s). This amount of formazan is measured by spectrophotometry.
# (§2) The cell lines are maintained as a monolayer culture at 37° C. in stoppered culture dishes containing MEM 25 MM HEPES (Minimum Essential Medium) base medium. This medium is suited to the growth of a range of various mammalian diploid or primary cells. This medium is then supplemented with:
# (§3) The 12 human cancer cell lines which were used were obtained from the American Type Culture Collection (ATCC, Rockville, Md., USA). These 12 cell lines are:
# (§4) J82 (code ATCC: HTB-1) and T24 (code ATCC: HTB-4) which are two bladder cancers,
# (§5) Experimentally, 100 μl of a cell suspension containing 20 000 to 50 000 (depending on the cell type used) cells/ml of culture medium are inoculated -in 96-well flat-bottomed multi-well plates and are left to stand in an incubator at 37° C., 5% CO2 and 70% humidity. After an incubation time of 24 hours, the culture medium is replaced with 100 μl of fresh medium containing either the various test compounds—at concentrations varying from 10^−5 to 10^−10 M—or the solvent having served for dissolving the products to be tested (control condition). […] The microplates are thus incubated for 3 hours at 37° C., then centrifuged for 10 minutes at 400 g. The yellowish solution of MTT is removed and the blue formazan crystals formed in the cell region are dissolved in 100 μl or DMSO. The microplates are then shaken for 5 minutes. […] Software incorporated in the spectrophotometer calculates the average optical density values and the standard deviation (SD) and standard error of mean (SEM) values.
row,SMILES,viability at 10 µM
1,"COc1ccc(-c2cn(C)c3cc(OC)cc(N4CCOCC4)c3c2=O)cc1 [CRL8435, 7-Methoxy-3-(4-methoxyphenyl)-1-methyl-5-morpholino-1,4-dihydro-4-quinolinone]",89.4%

# Same assay, conditions: Homo sapiens, T-24; T24; 10^−5 M; 72 hours incubation; MTT; mean value; read-out: mean optical density, expressed as percentage relative to the mean optical density under the control condition (100%)
row,SMILES,viability at 10 µM
1,"COc1ccc(-c2cn(CCC#N)c3cc(OC)ccc3c2=O)cc1 [CRL8467, 3-[7-Methoxy-3-(4-methoxyphenyl)-4-oxo-1,4-dihydro-1-quinolinyl]propanenitrile]",94.6%

# Test system: J82
# Test: as above
# Assay type: cell-based
# Details: Homo sapiens, 10^−5 M, 72 hours incubation, MTT, mean value, read-out: mean optical density, expressed as percentage relative to the mean optical density under the control condition (100%)
# Experimental: as §1, §2, §3, §4, §5
row,SMILES,viability at 10 µM
1,"COc1ccc(-c2cn(CCC#N)c3cc(OC)ccc3c2=O)cc1 [CRL8467, 3-[7-Methoxy-3-(4-methoxyphenyl)-4-oxo-1,4-dihydro-1-quinolinyl]propanenitrile]",96.3%

# Same assay, conditions: Homo sapiens, 10^−5 M, 72 hours of incubation, control condition = 100%, mean value, read-out: mean optical density as percentage of control, J82
row,SMILES,viability at 10 µM
1,"COc1ccc(-c2cn(C)c3cc(OC)cc(N4CCOCC4)c3c2=O)cc1 [CRL8435, 7-Methoxy-3-(4-methoxyphenyl)-1-methyl-5-morpholino-1,4-dihydro-4-quinolinone]",100%

# Test system: SW1088
# Test: as above
# Assay type: cell-based
# Details: Homo sapiens, 10^−5 M, 72 hours incubation, MTT, mean value, read-out: mean optical density, expressed as percentage relative to the mean optical density under the control condition (100%)
# Experimental: as §1, §2, §3
# SW1088 (code ATCC: HTB-12) which is an astro-cytoma,
# as §5
row,SMILES,viability at 10 µM
1,"COc1ccc(-c2cn(CCC#N)c3cc(OC)ccc3c2=O)cc1 [CRL8467, 3-[7-Methoxy-3-(4-methoxyphenyl)-4-oxo-1,4-dihydro-1-quinolinyl]propanenitrile]",101%

# Same assay, conditions: Homo sapiens, 10^−5 M, 72 hours of incubation, control condition = 100%, mean value, read-out: mean optical density as percentage of control, SW1088
row,SMILES,viability at 10 µM
1,"COc1ccc(-c2cn(C)c3cc(OC)cc(N4CCOCC4)c3c2=O)cc1 [CRL8435, 7-Methoxy-3-(4-methoxyphenyl)-1-methyl-5-morpholino-1,4-dihydro-4-quinolinone]",97.3%

# Test system: A-427
# Test: as above
# Assay type: cell-based
# Details: Homo sapiens, 10^−5 M, 72 hours incubation, MTT, mean value, read-out: mean optical density, expressed as percentage relative to the mean optical density under the control condition (100%)
# Experimental: as §1, §2, §3, §5
row,SMILES,viability at 10 µM
1,"COc1ccc(-c2cn(CCC#N)c3cc(OC)ccc3c2=O)cc1 [CRL8467, 3-[7-Methoxy-3-(4-methoxyphenyl)-4-oxo-1,4-dihydro-1-quinolinyl]propanenitrile]",90%

# Same assay, conditions: Homo sapiens, 10^−5 M, 72 hours of incubation, control condition = 100%, mean value, read-out: mean optical density as percentage of control, A-427
row,SMILES,viability at 10 µM
1,"COc1ccc(-c2cn(C)c3cc(OC)cc(N4CCOCC4)c3c2=O)cc1 [CRL8435, 7-Methoxy-3-(4-methoxyphenyl)-1-methyl-5-morpholino-1,4-dihydro-4-quinolinone]",115%

# Test system: A549
# Test: as above
# Assay type: cell-based
# Details: Homo sapiens, 10^−5 M, 72 hours incubation, MTT, mean value, read-out: mean optical density, expressed as percentage relative to the mean optical density under the control condition (100%)
# Experimental: as §1, §2, §3, §5
row,SMILES,viability at 10 µM
1,"COc1ccc(-c2cn(CCC#N)c3cc(OC)ccc3c2=O)cc1 [CRL8467, 3-[7-Methoxy-3-(4-methoxyphenyl)-4-oxo-1,4-dihydro-1-quinolinyl]propanenitrile]",90.8%

# Same assay, conditions: Homo sapiens, 10^−5 M, 72 hours of incubation, control condition = 100%, mean value, read-out: mean optical density as percentage of control, A549
row,SMILES,viability at 10 µM
1,"COc1ccc(-c2cn(C)c3cc(OC)cc(N4CCOCC4)c3c2=O)cc1 [CRL8435, 7-Methoxy-3-(4-methoxyphenyl)-1-methyl-5-morpholino-1,4-dihydro-4-quinolinone]",96.7%

# Test system: U-373MG
# Test: as above
# Assay type: cell-based
# Details: Homo sapiens, U373 MG; 10^−5 M, 72 hours of incubation, control condition = 100%, mean value; read-out: mean optical density as percentage of control, U-373MG
# Experimental: as §1, §2, §3, §5
row,SMILES,viability at 10 µM
1,"COc1ccc(-c2cn(C)c3cc(OC)cc(N4CCOCC4)c3c2=O)cc1 [CRL8435, 7-Methoxy-3-(4-methoxyphenyl)-1-methyl-5-morpholino-1,4-dihydro-4-quinolinone]",85%

# Same assay, conditions: Homo sapiens, U373 MG; U-373MG; 10^−5 M; 72 hours incubation; MTT; mean value; read-out: mean optical density, expressed as percentage relative to the mean optical density under the control condition (100%)
row,SMILES,viability at 10 µM
1,"COc1ccc(-c2cn(CCC#N)c3cc(OC)ccc3c2=O)cc1 [CRL8467, 3-[7-Methoxy-3-(4-methoxyphenyl)-4-oxo-1,4-dihydro-1-quinolinyl]propanenitrile]",108%

# Test system: MCF7
# Test: as above
# Assay type: cell-based
# Details: Homo sapiens, 10^−5 M, 72 hours incubation, MTT, mean value, read-out: mean optical density, expressed as percentage relative to the mean optical density under the control condition (100%)
# Experimental: as §1, §2, §3, §5
row,SMILES,viability at 10 µM
1,"COc1ccc(-c2cn(CCC#N)c3cc(OC)ccc3c2=O)cc1 [CRL8467, 3-[7-Methoxy-3-(4-methoxyphenyl)-4-oxo-1,4-dihydro-1-quinolinyl]propanenitrile]",98.3%

# Same assay, conditions: Homo sapiens, 10^−5 M, 72 hours of incubation, control condition = 100%, mean value, read-out: mean optical density as percentage of control, MCF7
row,SMILES,viability at 10 µM
1,"COc1ccc(-c2cn(C)c3cc(OC)cc(N4CCOCC4)c3c2=O)cc1 [CRL8435, 7-Methoxy-3-(4-methoxyphenyl)-1-methyl-5-morpholino-1,4-dihydro-4-quinolinone]",93.6%

# Test system: PC-3
# Test: as above
# Assay type: cell-based
# Details: Homo sapiens, 10^−5 M, 72 hours incubation, MTT, mean value, read-out: mean optical density, expressed as percentage relative to the mean optical density under the control condition (100%)
# Experimental: as §1, §2, §3, §5
row,SMILES,viability at 10 µM
1,"COc1ccc(-c2cn(CCC#N)c3cc(OC)ccc3c2=O)cc1 [CRL8467, 3-[7-Methoxy-3-(4-methoxyphenyl)-4-oxo-1,4-dihydro-1-quinolinyl]propanenitrile]",98.4%

# Same assay, conditions: Homo sapiens, 10^−5 M, 72 hours of incubation, control condition = 100%, mean value, read-out: mean optical density as percentage of control, PC-3
row,SMILES,viability at 10 µM
1,"COc1ccc(-c2cn(C)c3cc(OC)cc(N4CCOCC4)c3c2=O)cc1 [CRL8435, 7-Methoxy-3-(4-methoxyphenyl)-1-methyl-5-morpholino-1,4-dihydro-4-quinolinone]",105%

# Test system: T-47D
# Test: as above
# Assay type: cell-based
# Details: Homo sapiens, T47D; 10^−5 M, 72 hours of incubation, control condition = 100%, mean value; read-out: mean optical density as percentage of control, T-47D
# Experimental: as §1, §2, §3, §5
row,SMILES,viability at 10 µM
1,"COc1ccc(-c2cn(C)c3cc(OC)cc(N4CCOCC4)c3c2=O)cc1 [CRL8435, 7-Methoxy-3-(4-methoxyphenyl)-1-methyl-5-morpholino-1,4-dihydro-4-quinolinone]",95.7%

# Same assay, conditions: Homo sapiens, T47D; T-47D; 10^−5 M; 72 hours incubation; MTT; mean value; read-out: mean optical density, expressed as percentage relative to the mean optical density under the control condition (100%)
row,SMILES,viability at 10 µM
1,"COc1ccc(-c2cn(CCC#N)c3cc(OC)ccc3c2=O)cc1 [CRL8467, 3-[7-Methoxy-3-(4-methoxyphenyl)-4-oxo-1,4-dihydro-1-quinolinyl]propanenitrile]",100%

# Test system: LoVo
# Test: as above
# Assay type: cell-based
# Details: Homo sapiens, 10^−5 M, 72 hours incubation, MTT, mean value, read-out: mean optical density, expressed as percentage relative to the mean optical density under the control condition (100%)
# Experimental: as §1, §2, §3, §5
row,SMILES,viability at 10 µM
1,"COc1ccc(-c2cn(CCC#N)c3cc(OC)ccc3c2=O)cc1 [CRL8467, 3-[7-Methoxy-3-(4-methoxyphenyl)-4-oxo-1,4-dihydro-1-quinolinyl]propanenitrile]",95.8%

# Same assay, conditions: Homo sapiens, 10^−5 M, 72 hours of incubation, control condition = 100%, mean value, read-out: mean optical density as percentage of control, LoVo
row,SMILES,viability at 10 µM
1,"COc1ccc(-c2cn(C)c3cc(OC)cc(N4CCOCC4)c3c2=O)cc1 [CRL8435, 7-Methoxy-3-(4-methoxyphenyl)-1-methyl-5-morpholino-1,4-dihydro-4-quinolinone]",106%

# Test system: U-87MG
# Test: as above
# Assay type: cell-based
# Details: Homo sapiens, U-87 MG; 10^−5 M, 72 hours of incubation, control condition = 100%, mean value; read-out: mean optical density as percentage of control, U-87MG
# Experimental: as §1, §2, §3, §5
row,SMILES,viability at 10 µM
1,"COc1ccc(-c2cn(C)c3cc(OC)cc(N4CCOCC4)c3c2=O)cc1 [CRL8435, 7-Methoxy-3-(4-methoxyphenyl)-1-methyl-5-morpholino-1,4-dihydro-4-quinolinone]",85%

# Same assay, conditions: Homo sapiens; U-87MG; 10^−5 M; 72 hours incubation; MTT; mean value; read-out: mean optical density, expressed as percentage relative to the mean optical density under the control condition (100%)
row,SMILES,viability at 10 µM
1,"COc1ccc(-c2cn(CCC#N)c3cc(OC)ccc3c2=O)cc1 [CRL8467, 3-[7-Methoxy-3-(4-methoxyphenyl)-4-oxo-1,4-dihydro-1-quinolinyl]propanenitrile]",95.3%

# Test system: HCT-15
# Test: as above
# Assay type: cell-based
# Details: Homo sapiens, 10^−5 M, 72 hours of incubation, control condition = 100%, mean value, read-out: mean optical density as percentage of control, HCT-16
# Experimental: as §1, §2, §3, §5
row,SMILES,viability at 10 µM
1,"COc1ccc(-c2cn(C)c3cc(OC)cc(N4CCOCC4)c3c2=O)cc1 [CRL8435, 7-Methoxy-3-(4-methoxyphenyl)-1-methyl-5-morpholino-1,4-dihydro-4-quinolinone]",101%

# Same assay, conditions: Homo sapiens, HCT-16, 10^−5 M, 72 hours incubation, MTT, mean value, read-out: mean optical density, expressed as percentage relative to the mean optical density under the control condition (100%)
row,SMILES,viability at 10 µM
1,"COc1ccc(-c2cn(CCC#N)c3cc(OC)ccc3c2=O)cc1 [CRL8467, 3-[7-Methoxy-3-(4-methoxyphenyl)-4-oxo-1,4-dihydro-1-quinolinyl]propanenitrile]",108%

# Reference: patent US6645983B1, “Pharmaceutical compositions comprising 4-quinolones for treating cancers” (Laboratoire L. Lafon, priority 1999, dated 2003)
